The values that follow come from US8822503B2, “2-pyridone compounds” (Taisho Pharmaceutical Co., Ltd, priority 2009, dated 2014).

The experiment has as its target T1, human liver GK (Homo sapiens, UniProt P35557).
T1 construct: GST (glutathione S-transferase) (N); made in house; host or cells: E. coli
T1 sequence (P35557 1-466 isoform P35557-2): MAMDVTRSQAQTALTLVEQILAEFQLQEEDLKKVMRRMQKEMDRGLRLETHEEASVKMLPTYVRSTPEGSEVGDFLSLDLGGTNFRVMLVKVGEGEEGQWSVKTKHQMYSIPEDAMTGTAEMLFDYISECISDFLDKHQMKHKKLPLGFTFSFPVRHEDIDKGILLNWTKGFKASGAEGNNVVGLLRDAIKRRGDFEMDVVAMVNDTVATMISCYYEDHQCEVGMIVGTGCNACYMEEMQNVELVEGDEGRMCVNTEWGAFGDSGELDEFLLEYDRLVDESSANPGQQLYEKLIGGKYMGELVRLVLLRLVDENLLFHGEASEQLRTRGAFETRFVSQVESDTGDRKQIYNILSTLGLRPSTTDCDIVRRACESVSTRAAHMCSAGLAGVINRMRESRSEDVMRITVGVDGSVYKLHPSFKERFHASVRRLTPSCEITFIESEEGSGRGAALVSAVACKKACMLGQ
As to the kind of experiment: GK activation test. Type of experiment: biochemical. As to conditions: test compound concentration needed to activate 50% of maximum activation ability; 4 mM 14C-labeled glucose, 2 mM ATP, room temperature, 20 minutes. As for the experimental part:
The GK activation test for the test compounds was performed by the method of Irwin A. Rose et al. (J. Biol. Chem. 1964 January; 239:12-7) with partial modifications.
The enzyme source used in this assay, human liver GK, was expressed in E. coli as a fusion protein with GST (glutathione S-transferase) added to the amino terminus and was purified using Glutathione Sepharose 4B (Amersham Biosciences).
The test was carried out using flat-bottom 96-well plates (Sumitomo Bakelite Co., Ltd.). A solution of the test compound in dimethyl sulfoxide (DMSO) and DMSO as a control were added to each well of the plates at a final DMSO concentration of 1%. 25 mM Hepes-KOH (pH=7.1), 25 mM KCl, 2 mM MgCl2, 2 mM ATP, 4 mM ^14C-labeled glucose (Muromachi Yakuhin) and 1 mM DTT (dithiothreitol) were further added at the indicated final concentrations, respectively. Finally, human liver GK was added at 0.24 microgram per well and the reaction was started. The reaction was carried out at room temperature.
After 20 minutes, AG1-X4 resin (BioRad) suspended in 25 mM Hepes-KOH (pH=7.1) was added and the reaction product, labeled glucose 6-phosphate, was allowed to bind thereto. The whole volume was transferred to MultiScreen plates (Millipore) and the resin was washed with water. Thereafter, the labeled glucose 6-phosphate binding to the resin was eluted with a 0.5 M NaCl solution. The labeling activity of the eluted labeled glucose 6-phosphate was measured as an index of GK activity.
The GK activity maximally activated by the test compound was described as maximum activation ability, and the test compound concentration needed to activate 50% of that ability was described as EC50.
A word on the EC50: it is the concentration at which the effect is half-maximal. `COC(=O)c1ccc(/C(=C\C2CCCC2)c2ccc(C)c(=O)[nH]2)cc1` [Example 1-33, Methyl 4-[(E)-2-cyclopentyl-1-(5-methyl-6-oxo-1,6-dihydropyridin-2-yl)ethenyl]benzoate] came in with an EC50 of 500 to 3000 nM.
The compound `CS(=O)(=O)c1ccc(C(CC2CCCC2)c2ccc(C3CC3)c(=O)[nH]2)cc1` (stereo not drawn) [Example 2-10, 6-{2-Cyclopentyl-1-[4-(methylsulfonyl)phenyl]ethyl}-3-cyclopropylpyridin-2(1H)-one] showed an EC50 of 500 to 3000 nM.
Next, `CC(=O)NCC/C=C(\c1ccc(S(C)(=O)=O)cc1)c1ccc(C2CC2)c(=O)[nH]1` [Example 1-95, N-{(3E)-4-(5-Cyclopropyl-6-oxo-1,6-dihydropyridin-2-yl)-4-[4-(methylsulfonyl)phenyl]but-3-en-1-yl}acetamide]: 3000 to 10000 nM.
Under `CC(C)(C)c1ccc(/C(=C\[C@H]2CCC(=O)N2)c2ccc(Oc3ccccc3)c(=O)[nH]2)cc1` [Example 4-185, 6-{(E)-1-(4-tert-Butylphenyl)-2-[(2R)-5-oxopyrrolidin-2-yl]ethenyl}-3-phenoxypyridin-2(1H)-one] stands 10 to 500 nM; under `CC(C)(C)c1ccc(/C(=C\Cc2ccccc2)c2ccc(Cl)c(=O)[nH]2)cc1` [Example 6-28, 6-[(1E)-1-(4-tert-Butylphenyl)-3-phenylprop-1-en-1-yl]-3-chloropyridin-2(1H)-one], 500 to 3000 nM; under `Cc1cc(/C(=C\[C@H]2CCC(=O)N2)c2ccc(C3CC3)c(=O)[nH]2)ccc1C(F)(F)F` [Example 4-265, 3-Cyclopropyl-6-{(E)-1-[3-methyl-4-(trifluoromethyl)phenyl]-2-[(2R)-5-oxopyrrolidin-2-yl]ethenyl}pyridin-2(1H)-one], 10 to 500 nM.
Next, `CCCCc1ccc(/C(=C\[C@H]2CCC(=O)N2)c2ccc(Cl)c(=O)[nH]2)cc1` [Example 4-17, 6-{(E)-1-(4-Butylphenyl)-2-[(2R)-5-oxopyrrolidin-2-yl]ethenyl}-3-chloropyridin-2(1H)-one]: 10 to 500 nM; `O=C1CC[C@H](/C=C(\c2ccc(-c3ccccc3)cc2)c2ccc(Cl)c(=O)[nH]2)N1` [Example 4-151, 6-{(E)-1-(Biphenyl-4-yl)-2-[(2R)-5-oxopyrrolidin-2-yl]ethenyl}-3-chloropyridin-2(1H)-one]: 500 to 3000 nM; `CCCc1ccc(C(C[C@H]2CCC(=O)N2)c2ccc(C(F)(F)F)cc2)[nH]c1=O` (single isomer, unassigned) [Example 4-242]: 500 to 3000 nM.
`CC(C)c1ccc(/C(=C\[C@H]2CCC(=O)N2)c2ccc(Cl)c(=O)[nH]2)cc1Cl` [Example 4-84, 3-Chloro-6-{(E)-1-[3-chloro-4-(propan-2-yl)phenyl]-2-[(2R)-5-oxopyrrolidin-2-yl]ethenyl}pyridin-2(1H)-one] registered an EC50 of 10 to 500 nM.
Under `O=C1CC[C@H](CC(c2ccc(OC(F)F)c(Cl)c2)c2ccc(C3CC3)c(=O)[nH]2)N1` (single isomer, unassigned) [Example 4-356] stands 10 to 500 nM.
Under `Cc1ccc(Oc2ccc(/C(=C/[C@H]3CCC(=O)N3)c3ccc(C(C)(C)C)cc3)[nH]c2=O)cc1` [Example 4-187, 6-{(E)-1-(4-tert-Butylphenyl)-2-[(2R)-5-oxopyrrolidin-2-yl]ethenyl}-3-(4-methylphenoxy)pyridin-2(1H)-one] stands 500 to 3000 nM.
Under `O=C1OCCN1C/C=C(\c1ccc(S(=O)(=O)C2CC2)cc1)c1ccc(Cl)c(=O)[nH]1` [Example 6-21, 3-Chloro-6-[(1E)-1-[4-(cyclopropylsulfonyl)phenyl]-3-(2-oxo-1,3-oxazolidin-3-yl)prop-1-en-1-yl]pyridin-2(1H)-one] stands 500 to 3000 nM.
`CC(C)(C)c1ccc(C(C[C@H]2CCC(=O)N2)c2ccc(C(F)(F)F)c(=O)[nH]2)cc1` (single isomer, unassigned) [Example 4-315] returned an EC50 of 3000 to 10000 nM.
Under `CCOc1ccc(/C(=C\C2CCCC2)c2ccc(CC)c(=O)[nH]2)cc1Cl` [Example 1-17, 6-[(E)-1-(3-Chloro-4-ethoxyphenyl)-2-cyclopentylethenyl]-3-ethylpyridin-2(1H)-one] stands 10 to 500 nM.
With `CN(CCO)S(=O)(=O)c1ccc(/C(=C\[C@H]2CCC(=O)N2)c2ccc(C3CC3)c(=O)[nH]2)cc1` [Example 4-140, 4-{(E)-1-(5-Cyclopropyl-6-oxo-1,6-dihydropyridin-2-yl)-2-[(2R)-5-oxopyrrolidin-2-yl]ethenyl}-N-(2-hydroxyethyl)-N-methylbenzenesulfonamide], the EC50 fell in the range of 10 to 500 nM.
In the case of `CC(=O)Nc1cccc(/C(=C\[C@H]2CCC(=O)N2)c2ccc(Cl)c(=O)[nH]2)c1` [Example 4-163, N-(3-{(E)-1-(5-Chloro-6-oxo-1,6-dihydropyridin-2-yl)-2-[(2R)-5-oxopyrrolidin-2-yl]ethenyl}phenyl)acetamide], the half-maximal effective concentration (EC50) was in the range of 3000 to 10000 nM.
Under `O=C1CC[C@H](/C=C(\c2ccc(C(F)F)c(Cl)c2)c2ccc(C3CC3)c(=O)[nH]2)N1` [Example 4-132, 6-{(E)-1-[3-Chloro-4-(difluoromethyl)phenyl]-2-[(2R)-5-oxopyrrolidin-2-yl]ethenyl}-3-cyclopropylpyridin-2(1H)-one] stands 10 to 500 nM; under `O=C1CC[C@H](CC(c2ccc(C(F)(F)F)c(Cl)c2)c2ccc(C3CC3)c(=O)[nH]2)N1` (single isomer, unassigned) [Example 4-255], 3000 to 10000 nM.
Under `COc1cc(C(C[C@H]2CCC(=O)N2)c2ccc(C3CC3)c(=O)[nH]2)ccc1Cl` (single isomer, unassigned) [Example 4-227] stands 500 to 3000 nM; under `CCc1ccc(/C(=C/C2CCCC2)c2ccc(S(=O)(=O)CCCN(CC)CC)c(Cl)c2)[nH]c1=O` [Example 1-27, 6-[(E)-1-(3-Chloro-4-{[3-(diethylamino)propyl]sulfonyl}phenyl)-2-cyclopentylethenyl]-3-ethylpyridin-2(1H)-one], 10 to 500 nM; under `Cc1ccc(C(C[C@H]2CCC(=O)C2)c2ccc(S(C)(=O)=O)cc2)[nH]c1=O` (stereo partly drawn) [Example 2-23, 3-Methyl-6-{1-[4-(methylsulfonyl)phenyl]-2-[(1R)-3-oxocyclopentyl]ethyl}pyridin-2(1H)-one], 3000 to 10000 nM.
Next, `O=C1CC[C@H](/C=C(\c2ccc(Oc3ccccc3)cc2)c2ccc(Cl)c(=O)[nH]2)N1` [Example 4-152, 3-Chloro-6-[(E)-2-[(2R)-5-oxopyrrolidin-2-yl]-1-(4-phenoxyphenyl)ethenyl]pyridin-2(1H)-one]: 10 to 500 nM; `O=C1CC[C@H](CC(c2ccc(O)c(Cl)c2)c2ccc(C3CC3)c(=O)[nH]2)N1` (single isomer, unassigned) [Example 4-251]: 3000 to 10000 nM.
Regarding `O=C1CC[C@H](CC(c2ccc(C3CC3)c(=O)[nH]2)c2ccc(C(F)(F)F)cc2F)N1` (single isomer, unassigned) [Example 4-332], the EC50 is 500 to 3000 nM.
Under `O=c1[nH]c(/C(=C/C2CCOC2)c2ccc(SC3CC3)cc2)ccc1C(F)(F)F` (stereo not drawn) [Example 1-48, 6-{(E)-1-[4-(Cyclopropylsulfanyl)phenyl]-2-(tetrahydrofuran-3-yl)ethenyl}-3-(trifluoromethyl)pyridin-2(1H)-one] stands 500 to 3000 nM; under `Cc1ccc(/C(=C/C2CCCC2)c2ccc(S(C)(=O)=O)cc2)[nH]c1=O` [Example 1-8, 6-{(E)-2-Cyclopentyl-1-[4-(methylsulfonyl)phenyl]ethenyl}-3-methylpyridin-2(1H)-one], 500 to 3000 nM; under `O=C1CC[C@H](/C=C(\c2ccc(OC3CC3)c(Cl)c2)c2ccc(C3CC3)c(=O)[nH]2)N1` [Example 4-269, 6-{(E)-1-[3-Chloro-4-(cyclopropyloxy)phenyl]-2-[(2R)-5-oxopyrrolidin-2-yl]ethenyl}-3-cyclopropylpyridin-2(1H)-one], 10 to 500 nM.
Next, `Cc1ccc(/C(=C/[C@H]2CCC(=O)C2)c2ccc(SC3CC3)cc2)[nH]c1=O` [Example 1-60, 6-{(E)-1-[4-(Cyclopropylsulfanyl)phenyl]-2-[(1S)-3-oxocyclopentyl]ethenyl}-3-methylpyridin-2(1H)-one]: 10 to 500 nM; `CC(C)(C)c1ccc(/C(=C\CN2CCCC2=O)c2ccc(Cl)c(=O)[nH]2)cc1` [Example 6-3, 6-[(1E)-1-(4-tert-Butylphenyl)-3-(2-oxopyrrolidin-1-yl)prop-1-en-1-yl]-3-chloropyridin-2(1H)-one]: 10 to 500 nM.
